Results as given in ChEMBL document CHEMBL1149166, “Antimycobacterial agents. 1. Thio analogues of purine” (J Med Chem, 2004).
≈ marks a conversion by molar mass, not a printed value.

Columns and labels:
[1] = tested on: Mycobacterium tuberculosis; test: Percent inhibitory activity against Mycobacterium tuberculosis H37Rv Strain at 6.25 ug/mL; type: functional
[2] = tested on: Mycobacterium tuberculosis; test: Inhibitory activity against growth of Mycobacterium tuberculosis H37Rv Strain; type: functional
[3] = tested on: Mycobacterium tuberculosis; test: Lowest concentration of compound against Mtb H37Ra strain required to inhibit the growth completely; type: functional
[4] = tested on: Mycobacterium tuberculosis; test: Lowest concentration of compound against Mtb H37Ra strain required to inhibit the growth completely; activity range is 2-4; type: functional
[5] = tested on: Mycobacterium tuberculosis; test: Inhibitory activity against growth of Mycobacterium tuberculosis (Mtb) H37Ra Strain; Activity showed partial growth inhibition representing an estimated 50% or more; type: functional
[6] = tested on: Mycobacterium tuberculosis; test: Inhibitory activity against growth of Mycobacterium tuberculosis (Mtb) H37Ra Strain; type: functional
[7] = tested on: Mycobacterium tuberculosis; test: Percent inhibitory activity against Mycobacterium tuberculosis (Mtb) H37Rv Strain at 12.25 ug/mL; type: functional
[8] = Selective index is […]; type: functional
[9] = tested on: Mycobacterium tuberculosis; test: Concentration effecting […] reduction in the viable cell counts of mouse bone marrow macrophage monolayers containing Mtb Erdman after 7 days compared to controls; type: functional, organism-based; details: 168 h

SMILES	inhibition at 6.25 µg/mL [1] [%]	MIC90 [2] [µg/mL]	MIC [6] [µg/mL]	also measured
CCOC(=O)Cn1cnc2c(SCc3cc(Cl)ccc3F)nc(O)nc21	17	> 6.25	–	MIC [3]: 4 µg/mL (≈ 10.1 µM)
CC[C@@H](CO)NCCN[C@@H](CC)CO [ETHAMBUTOL]	–	–	–	MIC [4]: 4 µg/mL (≈ 19.6 µM)
Oc1nc(SCc2ccc(F)cc2)c2[nH]cnc2n1	52	> 6.25	–	MIC [5]: > 12.8 µg/mL
Oc1nc(SCc2ccc(F)cc2C(F)(F)F)c2[nH]cnc2n1	50	–	> 16	–
CCOC(=O)Cn1cnc2c(SCc3cccc([N+](=O)[O-])c3C)nc(O)nc21	0	> 6.25	16 (≈ 39.7 µM)	–
Clc1nc(Sc2ncccn2)c2[nH]cnc2n1	53	> 6.25	> 12.8	–
Cc1ccc(Sc2[nH]cnc3ncnc2-3)cc1	–	> 12.5	> 12.8	inhibition at 12.25 µg/mL [7]: 65%
CCOC(=O)Cn1cnc2c(Sc3cccc(C)c3)ncnc21	0	> 6.25	–	MIC [5]: > 12.8 µg/mL
Oc1nc(SCc2ccccc2Cl)c2[nH]cnc2n1	62	> 6.25	> 16	–
CCOC(=O)Cn1cnc2c(SCc3ccccc3)nc(O)nc21	25	> 6.25	–	MIC [3]: 4 µg/mL (≈ 11.6 µM)
CCOC(=O)Cn1cnc2c(Sc3ccc(Cl)cc3)ncnc21	99	> 6.25	32 (≈ 91.7 µM)	–
Oc1nc(SCc2ccccc2)c2[nH]cnc2n1	94	> 6.25	> 12.8	–
CCCCCCCCCCSc1[nH]c(Cl)nc2ncnc1-2	86	> 6.25	> 12.8	–
Clc1ccc(Sc2[nH]cnc3ncnc2-3)cc1	–	> 12.5	> 12.8	inhibition at 12.25 µg/mL [7]: 78%
c1ccc2cc(Sc3[nH]cnc4ncnc3-4)ccc2c1	–	> 12.5	–	MIC [5]: > 12.8 µg/mL; inhibition at 12.25 µg/mL [7]: 69%
CCCCCCCCCCSc1ncnc2c1ncn2CC(=O)OCc1ccccc1	0	> 6.25	> 12.8	–
CCCCCCCCCCSc1ncnc2c1ncn2CC(=O)Oc1ccccc1	0	> 6.25	> 12.8	–

SMILES	inhibition at 6.25 µg/mL [1] [%]	MIC90 [2] [µg/mL]	MIC [6] [µg/mL]	also measured
COc1cccc(CSc2[nH]c(O)nc3ncnc2-3)c1	59	> 6.25	> 16	–
CCCCCCCCCCSc1ncnc2c1ncn2CC(=O)OC(C)(C)C	99	3.13 (≈ 7.7 µM)	16 (≈ 39.4 µM)	SI [8]: > 3.19
Oc1nc(SCc2ccc(Cl)cc2)c2[nH]cnc2n1	55	> 6.25	–	MIC [5]: > 12.8 µg/mL
Cc1ccccc1Sc1[nH]c(Cl)nc2ncnc1-2	72	> 6.25	> 12.8	–
CCCCCCCCCCSc1ncnc2c1ncn2CC(N)=O	0	> 6.25	32 (≈ 91.6 µM)	–
CCCCCCCCCCCSc1[nH]cnc2ncnc1-2	98	3.13 (≈ 10.2 µM)	> 12.8	EC50 [9]: 2.54 µg/mL (≈ 8.29 µM)
CCCCCCCCCCSc1ncnc2c1ncn2CC(=O)OCC	100	1.56 (≈ 4.12 µM)	–	MIC [5]: > 12.8 µg/mL; SI [8]: > 40
Cc1cccc(Sc2[nH]cnc3ncnc2-3)c1	–	> 12.5	> 12.8	inhibition at 12.25 µg/mL [7]: 99%
CCOC(=O)Cn1cnc2c(SCc3ccccc3F)nc(O)nc21	22	> 6.25	–	MIC [3]: 4 µg/mL (≈ 11 µM)
O=[N+]([O-])c1ccccc1CSc1nc(O)nc2nc[nH]c12	61	> 6.25	> 16	–
c1ccc2nc(Sc3[nH]cnc4ncnc3-4)ccc2c1	–	> 12.5	> 12.8	inhibition at 12.25 µg/mL [7]: 69%
CCCCCCCCCCCCSc1ncnc2c1ncn2CC(=O)OCC	98	0.78 (≈ 1.92 µM)	–	MIC [3]: 8 µg/mL (≈ 19.7 µM); SI [8]: > 12.8
Clc1nc(Sc2cccc3ccccc23)c2[nH]cnc2n1	56	> 6.25	> 12.8	–
c1ccc(CSc2ncnc3[nH]cnc23)cc1	–	> 12.5	> 12.8	inhibition at 12.25 µg/mL [7]: 52%
CCOC(=O)Cn1cnc2c(Sc3ccc(C)cc3)ncnc21	99	> 6.25	> 12.8	–
CCOC(=O)Cn1cnc2c(Sc3ccc4ccccc4c3)ncnc21	100	> 6.25	–	MIC [5]: > 12.8 µg/mL
Oc1nc(SCc2ccccc2F)c2[nH]cnc2n1	50	> 6.25	–	MIC [3]: > 8 µg/mL
